From patent publication US4299839A, “Novel pesticides and pesticidal compositions cyclopropanecarboxylates and pesticidal method” (priority 1979, dated 1981)
Read-outs that look alike come from different tables or passages of the source.

Columns and labels:
Fish Toxicity Test = format: in vivo; conditions: guppy, water; rank; 50% of female guppies killed during 48 hours, 20° C.; [Mixture] = cis/trans 50/50; read-out: TLm (medium tolerance limit)
Description: (§1) The mixture was stirred well to prepare a test water. Ten female guppies from 3 to 4 months of age were released into the test water and maintained at 20° C. The concentration of the test compound at which 50% of the guppies were killed during the ensuring 48 hours was determined. [This concentration is referred to as TLm (medium tolerance limit, ppm)].
(§2) A rank corresponds to TLm of not less than 10 ppm.
(§3) B rank corresponds to TLm of 0.5-10 ppm.
(§4) C rank corresponds to TLm of not more than 0.5 ppm.

[1] = system: housefly (Musca domestica); experiment: Mortality test against houseflies by topical application; format: in vivo
Description: Each test compound was accurately weighed and a 1% solution and an 0.1% solution of the sample in acetone were prepared. A 1 μl portion of either of the above solutions was micropipetted onto the thoracic dorsal part of each female adult housefly (Musca domestica) under ether anaesthesia and the fly was released in a high-walled dish together with feed. The dish was covered with a metal-wire net and maintained at 25° C. After 24 hours, the test flies were inspected for deaths and the mortality (%) was calculated. Thirty test flies were used per concentration group.

guppies = experiment: Fish Toxicity Test; format: in vivo; conditions: rank; 50% of female guppies killed during 48 hours, 20° C.; [Mixture] = cis/trans 50/50
Description: as §1, §2, §3, §4

houseflies = experiment: Utility Example 3: settling mist method, mortality test against houseflies, oil preparations of Formulation Example 3; format: in vivo; conditions: oil preparation of Formulation Example 3 (0.1 part compound + 0.08 part permethrin per 100 parts), 24 hours; cis/trans 50/50
Description: To 0.1 part of each of Compounds (1) to (38) was added 0.08 part of permethrin, followed by the addition of a sufficient amount of kerosene to make 100 parts. The mixture was stirred to obtain an oil preparation of each compound.
By the settling mist method, a mortality test against houseflies was carried out using the oil preparations obtained in Formulation Example 3 from Compounds (1), (5), (7), (9), (11), (12), (15), (17) and (28) [Each compound is a mixture of cis- and trans-isomer in a ratio 50/50]. After 24 hours, the flies were examined for deaths. The mortality (%) was not less than 90% for each of Compounds (1), (5), (7), (9), (11), (12), (15), (17) and (28).

Light Stability Test = format: physicochemical; conditions: ultraviolet light, wavelength=3600 A, 31°-35° C., on glass plate
Description: Into 2.0 ml of acetone were dissolved 80 mg of each test compound. A 5 μl portion of the solution was taken and spread on a glass plate (Micro Standard Cover Glass, 18 m/m No. 1, 200 pcs, Matsunami Glass Ind., Ltd.) and the acetone was evaporated. The specimen was exposed to ultraviolet light from a fluorescent lamp (Tokyo Shibaura Electric Co., Ltd., FL20BL, glow-type, 100 V, 24.5 W, wavelength=3600 A) which was fixed just above the specimen at a distance of 11 cm at a temperature of 31°-35° C. for a predetermined exposure time. The test liquid was washed away with 1.0 ml of methanol containing 0.04% of dioctyl phthalate as an internal reference and high-speed liquid chromatography was carried out on the washings to determine the residual amount of the test compound.

[2] = 1μg/fly, female adult, 24 hours, 25° C., [Mixture] = cis/trans 50/50, read-out: Mortality (%)
[3] = 10μg/fly, female adult, 24 hours, 25° C., [Mixture] = cis/trans 50/50, read-out: Mortality (%)

Row | SMILES | LC50 at 48 h (Fish Toxicity Test) | mortality at 1 µg/fly ([1]; 24 h) | mortality at 10 µg/fly ([1]; 24 h) | other results
1 | CC1(C)C(C=C(Cl)Cl)C1C(=O)OCc1cccc(Oc2ccccc2)c1 (racemic) [Permethrin, 3-phenoxybenzyl (+)-cis,trans-2,2-dimethyl-3-(2,2-dichlorovinyl)-cyclopropanecarboxylate, reference compound] | ≤ 0.5 µg/mL | – | – | –
2 | CC1(C)[C@H](C(=O)OCc2cccc(Oc3ccccc3)c2)[C@@H]1CC(Cl)(Cl)Cl (relative stereo) [Compound (1) [Cis-isomer], 3-Phenoxybenzyl 2,2-dimethyl-3-(2,2,2-trichloroethyl)cyclopropanecarboxylate] | ≥ 10 µg/mL | 96.7% | 100% | –
3 | C#CC(OC(=O)[C@@H]1[C@@H](CC(Cl)(Cl)Cl)C1(C)C)c1cccc(Oc2ccccc2)c1 (relative stereo) [Compound (11) [Trans-isomer], 3-Phenoxy-α-ethynylbenzyl 2,2-dimethyl-3-(2,2,2-trichloroethyl)cyclopropanecarboxylate] | – | – | – | TLm (medium tolerance limit) (guppies): A (A rank corresponds to TLm of not less than 10 ppm)
4 | CC1(C)C(CC(Cl)(Cl)Cl)C1C(=O)OCc1cccc(Oc2ccccc2)c1 (centres unmarked) [(1), 3-Phenoxybenzyl 2,2-dimethyl-3-(2,2,2-trichloroethyl)cyclopropanecarboxylate] | – | – | – | Mortality (%) (houseflies): not less than 90%
5 | CC(Cl)(Cl)CC1C(C(=O)OCc2cccc(Oc3ccccc3)c2)C1(C)C (centres unmarked) [(5), 3-Phenoxybenzyl 2,2-dimethyl-3-(2,2-dichloropropyl)cyclopropanecarboxylate] | – | – | – | Mortality (%) (houseflies): not less than 90%
6 | C=CCC1=C(C)C(OC(=O)C2C(C=C(C)C)C2(C)C)CC1=O (centres unmarked) [Allethrin, reference compound] | ≤ 0.5 µg/mL | 33.3% | 100% | Residue (%) (Light Stability Test; exposure time 3.5 hrs.): 14%; Residue (%) (Light Stability Test; exposure time 3 days): 0%
7 | CC1(C)C(CC(Cl)(Cl)Cl)C1C(=O)OCc1cccc(Oc2ccc(Cl)cc2)c1 (centres unmarked) [Compound (2) [Mixture], 3-(4-Chlorophenoxy)benzyl 2,2-dimethyl-3-(2,2,2-trichloroethyl)cyclopropanecarboxylate] | ≥ 10 µg/mL | 0% | 86.7% | –
8 | CC(Cl)(Cl)CC1C(C(=O)OCc2cccc(Oc3ccccc3)c2)C1(C)C (centres unmarked) [Compound (5) [Mixture], 3-Phenoxybenzyl 2,2-dimethyl-3-(2,2-dichloropropyl)cyclopropanecarboxylate] | – | 100% | 100% | –
9 | CC1(C)[C@H](CC(Cl)(Cl)Cl)[C@H]1C(=O)OC(C#N)c1cccc(Oc2ccccc2)c1 (stereo partly drawn) [Compound (7) [Trans-isomer], 3-Phenoxy-α-cyanobenzyl 2,2-dimethyl-3-(2,2,2-trichloroethyl)cyclopropanecarboxylate] | – | – | – | TLm (medium tolerance limit) (guppies): B (B rank corresponds to TLm of 0.5-10 ppm)
10 | CC(Cl)(Cl)CC1C(C(=O)OC(C#N)c2cccc(Oc3ccccc3)c2)C1(C)C (stereo not drawn) [Compound (9) [Mixture], 3-Phenoxy-α-cyanobenzyl 2,2-dimethyl-3-(2,2-dichloropropyl)cyclopropanecarboxylate] | – | 100% | 100% | –
11 | CC(Cl)(Cl)CC1C(C(=O)OC(C#N)c2cccc(Oc3ccccc3)c2)C1(C)C (stereo not drawn) [Compound (9), 3-Phenoxy-α-cyanobenzyl 2,2-dimethyl-3-(2,2-dichloropropyl)cyclopropanecarboxylate] | – | – | – | Mortality (%) (houseflies): not less than 90%
12 | C#CC(OC(=O)C1C(CC(Br)(Br)Br)C1(C)C)c1cccc(Oc2ccccc2)c1 (stereo not drawn) [Compound (12) [Mixture], 3-Phenoxy-α-ethynylbenzyl 2,2-dimethyl-3-(2,2,2-tribromoethyl)cyclopropanecarboxylate] | ≥ 10 µg/mL | – | – | –
13 | C#CC(OC(=O)[C@@H]1[C@H](CC(C)(Cl)Cl)C1(C)C)c1cccc(Oc2ccccc2)c1 (stereo partly drawn) [Compound (13) [Cis-isomer], 3-Phenoxy-α-ethynylbenzyl 2,2-dimethyl-3-(2,2-dichloropropyl)cyclopropanecarboxylate] | – | – | – | TLm (medium tolerance limit) (guppies): A (A rank corresponds to TLm of not less than 10 ppm)
14 | CC1(C)C(CC(Cl)(Cl)Cl)C1C(=O)OC(C#N)c1cccc(Oc2ccc(Cl)cc2)c1 (stereo not drawn) [Compound (15) [Mixture], 3-(4-Chlorophenoxy)-α-cyanobenzyl 2,2-dimethyl-3-(2,2,2-trichloroethyl)cyclopropanecarboxylate] | ≥ 10 µg/mL | 86.7% | 100% | –
15 | C#CC(OC(=O)C1C(CC(Cl)(Cl)Cl)C1(C)C)c1cccc(Oc2ccc(Cl)cc2)c1 (stereo not drawn) [Compound (21) [Mixture], 3-(4-Chlorophenoxy)-α-ethynylbenzyl 2,2-dimethyl-3-(2,2,2-trichloroethyl)cyclopropanecarboxylate] | ≥ 10 µg/mL | 60% | 93.3% | –
16 | CC1(C)C(CC(Cl)(Cl)Cl)C1C(=O)OCc1coc(Cc2ccccc2)c1 (centres unmarked) [Compound (28) [Mixture], 5-Benzyl-3-furylmethyl 2,2-dimethyl-3-(2,2,2-trichloroethyl)cyclopropanecarboxylate] | ≥ 10 µg/mL | 86.7% | 100% | –
17 | CC1(C)C(CC(Cl)(Cl)Cl)C1C(=O)OCc1cccc(OC=C(Cl)Cl)c1 (centres unmarked) [Compound (33) [Mixture], 3-(2,2-dichlorovinyloxy)benzyl 2,2-dimethyl-3-(2,2,2-trichloroethyl)cyclopropanecarboxylate] | ≥ 10 µg/mL | – | – | mortality at 1 µg/fly [1, 2]: 6.7%; mortality at 10 µg/fly [1, 3]: 33.3%
18 | CC1(C)C(CC(Cl)(Cl)Cl)C1C(=O)OC(C#N)c1cccc(OC=C(Cl)Cl)c1 (stereo not drawn) [Compound (34) [Mixture], 3-(2,2-dichlorovinyloxy)-α-cyanobenzyl 2,2-dimethyl-3-(2,2,2-trichloroethyl)cyclopropanecarboxylate] | ≥ 10 µg/mL | – | – | Residue (%) (Light Stability Test; exposure time 3.5 hrs.): 100%; Residue (%) (Light Stability Test; exposure time 3 days): 88%; Residue (%) (Light Stability Test; exposure time 5 days): 44%; mortality at 1 µg/fly [1, 2]: 56.7%; mortality at 10 µg/fly [1, 3]: 100%
19 | CC1(C)C(CC(Cl)(Cl)Cl)C1C(=O)OCN1C(=O)C2=C(CCCC2)C1=O (centres unmarked) [Compound (37) [Mixture], 3,4,5,6-Tetrahydrophthalimidomethyl 2,2-dimethyl-3-(2,2,2-trichloroethyl)cyclopropane carboxylate] | 0.5 to 10 µg/mL | 40% | 56.7% | –
20 | C=CCC1=C(C)C(OC(=O)C2C(CC(Cl)(Cl)Cl)C2(C)C)CC1=O (centres unmarked) [Compound (38) [Mixture], Allethronyl 2,2-dimethyl-3-(2,2,2-trichloroethyl)cyclopropanecarboxylate] | 0.5 to 10 µg/mL | 6.7% | 100% | –
21 | CC1(C)C(C=C(Cl)Cl)C1C(=O)OC(C#N)c1cccc(Oc2ccccc2)c1 (stereo not drawn) [Cypermethrin, 3-phenoxy-α-cyanobenzyl 2,2-dimethyl-3-(2,2-dichlorovinyl)cyclopropanecarboxylate, reference compound] | ≤ 0.5 µg/mL | – | – | –
22 | CC(C)C(C(=O)OC(C#N)c1cccc(Oc2ccccc2)c1)c1ccc(Cl)cc1 (stereo not drawn) [Fenvalerate, 3-phenoxy-α-cyanobenzyl α-(4-chlorophenyl)isovalerate, reference compound] | ≤ 0.5 µg/mL | – | – | –
23 | CC(C)=CC1C(C(=O)OCc2coc(Cc3ccccc3)c2)C1(C)C (centres unmarked) [Resmethrin, 5-benzyl-3-furylmethyl chrysanthemate, reference compound] | ≤ 0.5 µg/mL | – | – | –
